# Experimental data from paper PMC12136031 (Science Advances, 2025).
# Read-outs that look alike come from different tables or passages of the source.
# Experiments:
# [1] = biological target: T1, DRD1 (Homo sapiens, UniProt P21728); test: Safety47 cAMP DRD1; format: cell-based; details: for Emax: read-out: Max Response; for EC50: read-out: RC50 (EC50); for IC50: read-out: RC50 (IC50)
# T1 construct: purchased Eurofins Panlab Safety47 Safety Scan
# [2] = biological target: T2, ADRB2 (Homo sapiens, UniProt P07550); test: Safety47 cAMP ADRB2; format: cell-based; details: for Emax: read-out: Max Response; for EC50: read-out: RC50 (EC50); for IC50: read-out: RC50 (IC50)
# T2 construct: purchased Eurofins Panlab Safety47 Safety Scan
# [3] = biological target: T3, HTR1A (Homo sapiens, UniProt P08908); test: Safety47 cAMP HTR1A; format: cell-based; details: for Emax: read-out: Max Response; for EC50: read-out: RC50 (EC50); for IC50: read-out: RC50 (IC50)
# T3 construct: purchased Eurofins Panlab Safety47 Safety Scan
# T3 sequence (P08908 1-422): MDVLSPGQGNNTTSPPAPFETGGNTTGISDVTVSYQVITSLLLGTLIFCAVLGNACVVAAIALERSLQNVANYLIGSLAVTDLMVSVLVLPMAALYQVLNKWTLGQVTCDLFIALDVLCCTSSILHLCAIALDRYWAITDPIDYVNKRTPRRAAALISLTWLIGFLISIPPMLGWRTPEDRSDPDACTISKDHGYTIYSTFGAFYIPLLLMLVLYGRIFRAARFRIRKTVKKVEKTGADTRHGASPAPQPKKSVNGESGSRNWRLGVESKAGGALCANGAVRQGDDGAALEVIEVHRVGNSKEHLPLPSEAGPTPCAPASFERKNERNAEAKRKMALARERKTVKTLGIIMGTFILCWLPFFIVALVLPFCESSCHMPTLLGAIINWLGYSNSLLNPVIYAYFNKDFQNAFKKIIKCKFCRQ
# [4] = tested on: hepatic endolysosomal capacity; test: Murine model of hepatic lysosomal activity (dextran cascade blue uptake); format: in vivo, C57BL/6 mice; details: 50 mg/kg i.p. daily for 4 days
# [5] = biological target: T4, EDNRA (Homo sapiens, UniProt P25101); test: Safety47 Calcium Flux EDNRA; format: cell-based; details: for Emax: read-out: Max Response; for EC50: read-out: RC50 (EC50); for IC50: read-out: RC50 (IC50)
# T4 construct: purchased Eurofins Panlab Safety47 Safety Scan
# T4 sequence (P25101 21-427): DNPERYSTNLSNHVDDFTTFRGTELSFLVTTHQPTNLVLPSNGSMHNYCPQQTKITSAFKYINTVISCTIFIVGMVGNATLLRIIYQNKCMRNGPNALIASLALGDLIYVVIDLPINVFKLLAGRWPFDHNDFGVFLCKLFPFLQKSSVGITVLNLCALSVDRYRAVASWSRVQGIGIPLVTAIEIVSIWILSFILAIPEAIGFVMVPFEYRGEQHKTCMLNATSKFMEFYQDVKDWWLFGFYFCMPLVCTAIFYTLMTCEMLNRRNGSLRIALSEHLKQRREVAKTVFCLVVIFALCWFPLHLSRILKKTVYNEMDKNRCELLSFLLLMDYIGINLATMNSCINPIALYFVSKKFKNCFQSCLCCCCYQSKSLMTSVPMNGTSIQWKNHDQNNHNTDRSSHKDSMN
# [6] = biological target: T5, ROCK1 (Homo sapiens, UniProt Q13464); test: Safety47 Kinase Binding ROCK1; details: Kinases, Inhibitor; for Emax: read-out: Max Response; for IC50: read-out: RC50 (IC50)
# T5 construct: purchased Eurofins Panlab (Safety47 Safety Scan, contract panel)
# [7] = biological target: T6, DAT (Homo sapiens, UniProt Q01959); test: Safety47 Transporter DAT; format: cell-based; details: Blocker; for Emax: read-out: Max Response; for IC50: read-out: RC50 (IC50)
# T6 construct: purchased Eurofins Panlab (Safety47 Safety Scan, contract panel)
# [8] = biological target: T7, HTR2B (Homo sapiens, UniProt P41595); test: Safety47 Calcium Flux HTR2B; format: cell-based; details: for Emax: read-out: Max Response; for EC50: read-out: RC50 (EC50); for IC50: read-out: RC50 (IC50)
# T7 construct: purchased Eurofins Panlab Safety47 Safety Scan
# [9] = biological target: T8, DCAF7-TFEB interaction (Homo sapiens, UniProt P61962); test: Proximity ligation assay of TFEB and DCAF7 in BEAS-2B cells; format: cell-based
# T8 construct: endogenous in cells; host or cells: BEAS-2B
# [10] = tested on: SARS-CoV-2; test: In vivo hamster SARS-CoV-2 infection assay; parameters: species or system Syrian golden hamster
# [11] = tested on: TFEB ubiquitination; test: TFEB cellular ubiquitination assay; format: cell-based, human; details: TFEB-EGFP immunoprecipitated
# [12] = biological target: T9, KvLQT1/minK (Homo sapiens, UniProt P51787); test: Safety47 Ion Channel KvLQT1/minK; format: cell-based; details: for Emax: read-out: Max Response; for IC50: read-out: RC50 (IC50); for EC50: read-out: RC50 (EC50)
# T9 construct: purchased Eurofins Panlab (Safety47 Safety Scan, contract panel)
# [13] = biological target: T10, AVPR1A (Homo sapiens, UniProt P37288); test: Safety47 Calcium Flux AVPR1A; format: cell-based; details: for Emax: read-out: Max Response; for EC50: read-out: RC50 (EC50); for IC50: read-out: RC50 (IC50)
# T10 construct: purchased Eurofins Panlab Safety47 Safety Scan
# [14] = biological target: DCAF7 (Homo sapiens, UniProt P61962); test: Microscale thermophoresis (MST) of DCAF7 and BC18630; details: read-out: Kd (MST binding coefficient)
# [15] = tested on: TFEB transcriptional targets; test: RNA-seq of DCAF7 inhibitor-treated BEAS-2B cells; format: cell-based, human; details: 3 μM, 18 hours
# [16] = biological target: T11, MAOA (Homo sapiens, UniProt P21397); test: Safety47 Enzymatic MAOA; format: biochemical; details: Inhibitor; for Emax: read-out: Max Response; for IC50: read-out: RC50 (IC50)
# T11 construct: purchased Eurofins Panlab (Safety47 Safety Scan, contract panel)
# T11 sequence (P21397 1-527): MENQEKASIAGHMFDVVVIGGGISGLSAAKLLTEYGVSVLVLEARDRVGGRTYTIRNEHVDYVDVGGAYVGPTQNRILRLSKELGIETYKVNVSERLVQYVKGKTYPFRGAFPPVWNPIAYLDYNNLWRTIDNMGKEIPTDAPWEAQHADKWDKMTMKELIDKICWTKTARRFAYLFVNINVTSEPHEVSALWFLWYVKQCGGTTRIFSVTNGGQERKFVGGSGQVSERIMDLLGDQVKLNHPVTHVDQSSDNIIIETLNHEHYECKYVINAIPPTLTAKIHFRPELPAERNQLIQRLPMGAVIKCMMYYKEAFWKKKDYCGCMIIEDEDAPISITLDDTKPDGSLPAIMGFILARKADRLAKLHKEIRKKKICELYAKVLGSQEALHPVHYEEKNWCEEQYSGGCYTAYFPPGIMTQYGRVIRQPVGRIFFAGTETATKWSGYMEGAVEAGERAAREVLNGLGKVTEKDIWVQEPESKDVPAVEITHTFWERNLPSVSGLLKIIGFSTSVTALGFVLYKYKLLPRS
# T7 sequence (P41595 whole entry): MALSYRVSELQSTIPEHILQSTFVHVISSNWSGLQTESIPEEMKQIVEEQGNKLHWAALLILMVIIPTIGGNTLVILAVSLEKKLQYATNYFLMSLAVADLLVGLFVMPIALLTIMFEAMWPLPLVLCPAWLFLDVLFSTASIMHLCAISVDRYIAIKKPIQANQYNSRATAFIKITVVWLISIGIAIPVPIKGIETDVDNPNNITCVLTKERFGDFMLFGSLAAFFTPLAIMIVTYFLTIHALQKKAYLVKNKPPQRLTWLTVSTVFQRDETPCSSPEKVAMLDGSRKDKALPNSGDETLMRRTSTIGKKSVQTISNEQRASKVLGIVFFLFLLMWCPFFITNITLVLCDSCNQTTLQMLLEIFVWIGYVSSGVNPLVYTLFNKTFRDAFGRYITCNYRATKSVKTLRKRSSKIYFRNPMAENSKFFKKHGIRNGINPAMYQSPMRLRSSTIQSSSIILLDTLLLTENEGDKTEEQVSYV
# T10 sequence (P37288 whole entry): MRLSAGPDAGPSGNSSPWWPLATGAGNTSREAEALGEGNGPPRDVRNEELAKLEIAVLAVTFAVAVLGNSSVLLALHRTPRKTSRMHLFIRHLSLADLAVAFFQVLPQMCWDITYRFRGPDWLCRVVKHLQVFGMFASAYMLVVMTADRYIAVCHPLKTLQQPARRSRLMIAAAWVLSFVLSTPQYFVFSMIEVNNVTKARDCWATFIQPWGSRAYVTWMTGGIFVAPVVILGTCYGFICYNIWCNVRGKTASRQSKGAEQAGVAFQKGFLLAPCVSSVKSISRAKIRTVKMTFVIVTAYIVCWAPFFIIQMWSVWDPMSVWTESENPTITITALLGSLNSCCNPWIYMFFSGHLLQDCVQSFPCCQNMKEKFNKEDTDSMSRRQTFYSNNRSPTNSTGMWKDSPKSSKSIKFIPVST
# T9 sequence (P51787 whole entry): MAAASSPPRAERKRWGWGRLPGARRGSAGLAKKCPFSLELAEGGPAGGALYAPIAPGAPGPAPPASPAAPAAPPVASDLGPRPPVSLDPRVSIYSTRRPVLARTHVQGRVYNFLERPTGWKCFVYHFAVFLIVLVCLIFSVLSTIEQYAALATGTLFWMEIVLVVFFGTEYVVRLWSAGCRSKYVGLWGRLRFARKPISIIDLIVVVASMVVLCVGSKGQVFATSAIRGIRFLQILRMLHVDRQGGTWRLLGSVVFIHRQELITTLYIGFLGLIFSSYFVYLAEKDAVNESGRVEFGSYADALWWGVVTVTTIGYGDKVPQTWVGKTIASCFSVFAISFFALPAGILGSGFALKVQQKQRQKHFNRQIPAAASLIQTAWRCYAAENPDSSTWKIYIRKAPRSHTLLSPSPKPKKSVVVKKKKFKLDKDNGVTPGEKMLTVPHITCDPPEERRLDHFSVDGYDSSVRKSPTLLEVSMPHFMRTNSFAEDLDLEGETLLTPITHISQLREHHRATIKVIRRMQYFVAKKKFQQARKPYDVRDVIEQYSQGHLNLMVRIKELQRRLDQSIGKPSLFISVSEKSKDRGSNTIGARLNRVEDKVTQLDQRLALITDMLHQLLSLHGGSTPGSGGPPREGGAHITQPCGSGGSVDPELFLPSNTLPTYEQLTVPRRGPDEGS
# T1 sequence (P21728 whole entry): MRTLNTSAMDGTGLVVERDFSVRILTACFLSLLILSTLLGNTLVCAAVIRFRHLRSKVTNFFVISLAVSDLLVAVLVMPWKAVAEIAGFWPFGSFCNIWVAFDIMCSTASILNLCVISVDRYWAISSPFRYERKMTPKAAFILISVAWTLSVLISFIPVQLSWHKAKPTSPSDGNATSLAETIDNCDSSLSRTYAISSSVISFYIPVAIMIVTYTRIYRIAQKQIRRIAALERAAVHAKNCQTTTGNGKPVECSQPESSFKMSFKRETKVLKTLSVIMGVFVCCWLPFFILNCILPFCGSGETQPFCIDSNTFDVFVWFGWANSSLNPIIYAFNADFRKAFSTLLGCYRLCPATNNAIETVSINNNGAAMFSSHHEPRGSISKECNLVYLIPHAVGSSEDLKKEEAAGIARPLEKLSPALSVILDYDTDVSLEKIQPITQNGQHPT
# T6 sequence (Q01959 whole entry, species assumed): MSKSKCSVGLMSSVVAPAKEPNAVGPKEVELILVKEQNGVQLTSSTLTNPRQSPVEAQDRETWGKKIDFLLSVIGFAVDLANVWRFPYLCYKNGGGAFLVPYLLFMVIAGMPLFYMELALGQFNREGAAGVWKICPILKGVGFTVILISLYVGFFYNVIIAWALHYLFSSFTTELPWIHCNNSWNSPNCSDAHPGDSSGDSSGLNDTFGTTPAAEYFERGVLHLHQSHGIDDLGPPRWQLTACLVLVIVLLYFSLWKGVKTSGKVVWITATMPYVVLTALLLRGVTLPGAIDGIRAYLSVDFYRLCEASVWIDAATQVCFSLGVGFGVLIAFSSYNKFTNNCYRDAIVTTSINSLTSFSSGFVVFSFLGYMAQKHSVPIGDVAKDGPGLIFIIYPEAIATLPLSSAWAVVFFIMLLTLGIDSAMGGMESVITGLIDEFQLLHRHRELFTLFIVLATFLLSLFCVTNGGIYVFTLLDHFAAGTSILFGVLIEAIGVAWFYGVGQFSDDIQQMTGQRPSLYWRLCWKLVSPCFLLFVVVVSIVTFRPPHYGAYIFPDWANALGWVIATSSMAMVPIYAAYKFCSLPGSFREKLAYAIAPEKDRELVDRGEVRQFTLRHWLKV
# T5 sequence (Q13464 whole entry, species assumed): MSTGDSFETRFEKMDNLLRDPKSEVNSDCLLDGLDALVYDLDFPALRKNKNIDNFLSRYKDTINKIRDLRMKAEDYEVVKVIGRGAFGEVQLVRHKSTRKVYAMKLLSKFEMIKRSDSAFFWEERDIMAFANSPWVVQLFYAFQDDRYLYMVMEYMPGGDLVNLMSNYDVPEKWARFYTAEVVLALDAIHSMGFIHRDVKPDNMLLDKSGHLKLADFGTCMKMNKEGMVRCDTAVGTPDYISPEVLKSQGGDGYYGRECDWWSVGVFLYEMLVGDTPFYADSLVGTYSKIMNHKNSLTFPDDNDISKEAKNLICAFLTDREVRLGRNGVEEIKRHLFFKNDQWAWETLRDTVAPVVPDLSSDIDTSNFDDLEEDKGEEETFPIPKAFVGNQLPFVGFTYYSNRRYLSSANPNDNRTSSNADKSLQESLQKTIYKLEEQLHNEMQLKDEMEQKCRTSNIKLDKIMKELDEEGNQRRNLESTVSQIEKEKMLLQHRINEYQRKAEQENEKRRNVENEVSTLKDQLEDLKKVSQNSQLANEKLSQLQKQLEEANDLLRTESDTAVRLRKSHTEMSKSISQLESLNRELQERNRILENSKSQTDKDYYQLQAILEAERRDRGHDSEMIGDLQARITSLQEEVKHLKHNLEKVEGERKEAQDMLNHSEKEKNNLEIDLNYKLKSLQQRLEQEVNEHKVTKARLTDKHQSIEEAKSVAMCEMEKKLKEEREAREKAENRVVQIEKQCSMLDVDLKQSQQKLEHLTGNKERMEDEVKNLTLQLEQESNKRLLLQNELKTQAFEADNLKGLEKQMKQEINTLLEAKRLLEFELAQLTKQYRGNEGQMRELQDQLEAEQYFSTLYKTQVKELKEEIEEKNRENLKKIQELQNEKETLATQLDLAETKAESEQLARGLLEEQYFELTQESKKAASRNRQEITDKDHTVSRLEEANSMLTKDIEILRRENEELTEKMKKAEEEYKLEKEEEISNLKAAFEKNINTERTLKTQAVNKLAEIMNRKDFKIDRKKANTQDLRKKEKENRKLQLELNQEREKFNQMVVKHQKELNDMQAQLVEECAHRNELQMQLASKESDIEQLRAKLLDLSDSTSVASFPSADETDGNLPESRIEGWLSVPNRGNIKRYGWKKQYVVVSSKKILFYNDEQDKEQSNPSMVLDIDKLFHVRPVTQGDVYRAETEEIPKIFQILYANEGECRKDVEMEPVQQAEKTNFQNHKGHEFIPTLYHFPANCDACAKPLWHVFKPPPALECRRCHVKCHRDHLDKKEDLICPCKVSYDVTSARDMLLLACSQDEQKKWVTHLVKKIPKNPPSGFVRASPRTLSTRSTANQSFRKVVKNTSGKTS
# T2 sequence (P07550 whole entry): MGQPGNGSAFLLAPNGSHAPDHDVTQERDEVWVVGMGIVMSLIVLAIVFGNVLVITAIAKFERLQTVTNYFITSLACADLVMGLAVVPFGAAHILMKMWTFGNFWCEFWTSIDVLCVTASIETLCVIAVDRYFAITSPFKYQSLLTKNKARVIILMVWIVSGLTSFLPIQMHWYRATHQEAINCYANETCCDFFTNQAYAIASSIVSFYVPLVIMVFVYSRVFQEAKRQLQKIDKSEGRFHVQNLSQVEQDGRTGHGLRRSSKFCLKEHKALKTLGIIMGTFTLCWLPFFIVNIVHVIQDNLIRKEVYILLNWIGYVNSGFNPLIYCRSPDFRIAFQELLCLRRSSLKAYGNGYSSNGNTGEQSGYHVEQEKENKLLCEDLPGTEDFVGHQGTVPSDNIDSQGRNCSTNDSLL
# T8 sequence (P61962 whole entry): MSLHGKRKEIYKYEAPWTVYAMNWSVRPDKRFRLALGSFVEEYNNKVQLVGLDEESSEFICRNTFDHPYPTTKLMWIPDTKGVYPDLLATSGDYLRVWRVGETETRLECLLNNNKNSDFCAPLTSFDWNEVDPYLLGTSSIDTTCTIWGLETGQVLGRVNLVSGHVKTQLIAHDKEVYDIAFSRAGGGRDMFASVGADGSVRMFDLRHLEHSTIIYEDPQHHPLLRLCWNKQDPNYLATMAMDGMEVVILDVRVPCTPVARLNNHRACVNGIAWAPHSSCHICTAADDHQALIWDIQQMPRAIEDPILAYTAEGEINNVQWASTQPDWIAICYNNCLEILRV
# Sequence of DCAF7 (P61962 whole entry): as above
smiles,measurement,setting,value
"Cl.c1ccc2c(Nc3ccc4[nH]ccc4c3)nc(-c3ccncc3)nc2c1 [BC18630, N-1H-indol-5-yl-2-pyridin-4-ylquinazolin-4-amine hydrochloride]",Emax,[1]; Agonist,0%
same,EC50,[1]; Agonist,> 10 µM
same,Curve Bottom,[1]; Antagonist,0
same,Curve Top,[1]; Antagonist,100
same,Hill,[1]; Antagonist,1.45
same,Emax,[1]; Antagonist,55.1%
same,IC50,[1]; Antagonist,8.45 µM
same,Emax,[2]; Agonist,0%
same,EC50,[2]; Agonist,> 10 µM
same,Emax,[2]; Antagonist,37.3%
same,IC50,[2]; Antagonist,> 10 µM
same,Emax,[3]; Agonist,9.36%
same,EC50,[3]; Agonist,> 10 µM
same,Emax,[3]; Antagonist,5.7%
same,IC50,[3]; Antagonist,> 10 µM
same,Mouse hepatic endolysosomal capacity,[4],increased
same,Emax,[5]; Agonist,0%
same,EC50,[5]; Agonist,> 10 µM
same,Emax,[5]; Antagonist,3.72%
same,IC50,[5]; Antagonist,> 10 µM
same,Emax,[6],20.8%
same,IC50,[6],> 10 µM
same,Emax,[7],37%
same,IC50,[7],> 10 µM
same,Emax,[8]; Agonist,5.41%
same,EC50,[8]; Agonist,> 10 µM
same,Emax,[8]; Antagonist,9.48%
same,IC50,[8]; Antagonist,> 10 µM
same,Nuclear protein-protein interaction between DCAF7 and TFEB (PLA),[9],largely reduced
same,NP-positive epithelial staining (IHC of lung slices),[10]; 4 dpi,notably reduced
same,Observed levels of lung injury,[10]; H&E histology,mitigated
same,Lung viral load reduction,"[10]; higher dose (50 mg/kg oral BID), 4 and 6 dpi",> 90%
same,Lung viral titer (PFU),"[10]; oral BID 20 and 50 mg/kg, all time points (2, 4, 6 dpi)",dose-dependently reduced
same,TFEB ubiquitination,[11],decreased
same,Emax,[12]; Blocker,21.4%
same,IC50,[12]; Blocker,> 10 µM
same,Emax,[12]; Opener,6.18%
same,EC50,[12]; Opener,> 10 µM
same,Emax,[13]; Agonist,8.97%
same,EC50,[13]; Agonist,> 10 µM
same,Emax,[13]; Antagonist,15.9%
same,IC50,[13]; Antagonist,> 10 µM
same,Kd,[14],~4.38 µM
same,Transcripts previously identified as TFEB transcriptional targets,[15],notable increase
same,Emax,[16],57%
same,IC50,[16],> 10 µM
"Cl.Fc1cc(Nc2nc(-c3ccncc3)nc3ncccc23)cc2cc[nH]c12 [BC18813, N-(7-fluoro-1H-indol-5-yl)-2-pyridin-4-ylpyrido[2,3-d]pyrimidin-4-amine hydrochloride]",Emax,[1]; Agonist,0%
same,EC50,[1]; Agonist,> 10 µM
same,Curve Bottom,[1]; Antagonist,0
same,Curve Top,[1]; Antagonist,100
same,Hill,[1]; Antagonist,1.19
same,Emax,[1]; Antagonist,50.1%
same,IC50,[1]; Antagonist,9.45 µM
same,Emax,[2]; Agonist,0%
same,EC50,[2]; Agonist,> 10 µM
same,Emax,[2]; Antagonist,41.9%
same,IC50,[2]; Antagonist,> 10 µM
same,Emax,[3]; Agonist,13%
same,EC50,[3]; Agonist,> 10 µM
same,Emax,[3]; Antagonist,0%
same,IC50,[3]; Antagonist,> 10 µM
same,Emax,[5]; Agonist,5.5%
same,EC50,[5]; Agonist,> 10 µM
same,Emax,[5]; Antagonist,2.32%
same,IC50,[5]; Antagonist,> 10 µM
same,Emax,[6],22.8%
same,IC50,[6],> 10 µM
same,Emax,[7],16.8%
same,IC50,[7],> 10 µM
same,Emax,[8]; Agonist,2.91%
same,EC50,[8]; Agonist,> 10 µM
same,Emax,[8]; Antagonist,31.3%
same,IC50,[8]; Antagonist,> 10 µM
same,Nuclear protein-protein interaction between DCAF7 and TFEB (PLA),[9],largely reduced
same,TFEB ubiquitination,[11],decreased
same,Emax,[12]; Blocker,12.9%
same,IC50,[12]; Blocker,> 10 µM
same,Emax,[12]; Opener,3.89%
same,EC50,[12]; Opener,> 10 µM
same,Emax,[13]; Agonist,1.07%
same,EC50,[13]; Agonist,> 10 µM
same,Emax,[13]; Antagonist,16%
same,IC50,[13]; Antagonist,> 10 µM
same,Emax,[16],22.2%
same,IC50,[16],> 10 µM
